System: bovine embryos
Assay: Example 9: L-NAME (1 or 1000 nM) added to mBECM containing serum and Hb, pre-hatching development
Assay type: cell-based
Parameters: key to Least square mean of embryos developed to 16-cell / Least square mean of embryos developed to Blastocyst / Least square mean of embryos developed to 2-cell / Least square mean of embryos developed to 8-cell / Least square mean of embryos developed to Morula: fraction developed; each embryo scored 1 = developed, 0 = not developed
Conditions: for Number of embryos developed to 2-cell / Number of embryos developed to 8-cell / Number of embryos developed to 16-cell / Number of embryos developed to Morula / Number of embryos developed to Blastocyst: 96 embryos; for Number of embryos developed to 2-cell / Least square mean of embryos developed to 2-cell: 48 h; for Number of embryos developed to 8-cell / Least square mean of embryos developed to 8-cell: 60 h; for Number of embryos developed to 16-cell / Least square mean of embryos developed to 16-cell: 120 h; for Number of embryos developed to Morula / Least square mean of embryos developed to Morula: 144 h; for Number of embryos developed to Blastocyst / Least square mean of embryos developed to Blastocyst: 192 h
Protocol: The basic medium used for maturation of oocytes was tissue culture medium (TCM)-199 with Earle's salts, buffered with 25 mM HEPES (Gibco BRL, Grand Island, N.Y.) and supplemented with 10% (v/v) heat-inactivated fetal bovine serum (FBS; Hyclone Laboratories, Logan, Utah), 1 μg/ml estradiol-17β (NOBL Laboratories, Sioux Center, Iowa), 3 μg/ml bovine FSH (NOBL Laboratories), 6 μg/ml bovine LH (NOBL Laboratories), and 25 μg/ml gentamycin (Sigma Chemical Co., St. Louis, Mo.). The basic medium used for treatment of spermatozoa and fertilization of oocytes was a modified Tyrode's medium (J. Parrish et al., Capacitation of bovine sperm by heparin. Biol. Reprod. 38:1171-1180 (1988)), supplemented with 0.25 mM sodium pyruvate (Gibco BRL), 6 mg/ml fatty acid (FA)-free BSA (No. A-6003, Sigma), 15 μg/ml calcium heparin from porcine intestinal mucosa (183 USP/mg; H-8398, Sigma), and 25 μg/ml gentamycin. Modified bovine embryo culture medium (mBECM) containing 10 μM β-mercaptoethanol was used for culture of embryos, as described in J. Lim et al., “Roles of growth factors in the development of bovine embryos fertilized in vitro and cultured singly in a defined medium,” Reprod. Fertil. Dev., 8:1199-1205 (1996). mBECM supplemented with 10% (v/v) FBS was used for co-culturing inseminated oocytes with CGC. Osmolarity of the medium was maintained within the range of 265-290 mOsm.
All cumulus-oocyte complexes (COC) were collected in Madison, Wis. (BOMED, Inc.) and were shipped in 2 ml of maturation medium in a battery powered incubator via overnight express mail service. Oocytes matured during transit and arrived within 24 h after exposure to maturation medium, pre-equilibrated at 39° C. in 5% CO2 in air. At 22 to 24 h after exposure to the medium, the COCs were inseminated in vitro as described in J. Lim et al., “Intracytoplasmic glutathione concentration and the role of β-mercaptoethanol in preimplantation development of bovine embryos,” Theriogenology, 46:429-439 (1996). At 18 h post-insemination, COCs were cultured in groups (28-40 embryos) in a 4-well multidish (Nunc, Roskilde, Denmark) containing 0.8-ml of mBECM. Embryos were dislodged from CGC at 36 to 48 h post-insemination.
In Example 9, IVF embryos were cultured in MBECM supplemented as follows: 1) no addition (control), 2) Hb (1 μg/ml), 3) Hb plus L-NAME (1 nM), and 4) Hb plus L-NAME (1000 nM). Embryonic development was evaluated up to 192 h post-insemination. A total of 384 oocytes were inseminated, and were randomly and equally allotted to 4 replicates.
Embryos developed to the 2-cell, 8-cell, 16-cell, morula, and blastocyst stages at the pertinent observation times were individually scored ‘1’ (developed). Embryos that had not developed to these stages at the same times were scored ‘0’ (non-developed). Sums of the scores at each stage of development were evaluated by analysis of variance using a general linear model (PROC-GLM) in the SAS statistical programming package (1991). In Example 8, the combined effects of Hb addition and month of oocyte collection were first examined in a 2×7 factorial arrangement. Overall differences in embryonic development in Hb-free and Hb-containing culture systems were further evaluated. […] Differences were regarded as statistically significant where P values were less than 0.05.

In the case of `COC(=O)[C@@H](N)CCCN=C(N)N[N+](=O)[O-].Cl` [L-NAME, N^G-Lω-nitro-L-arginine methyl ester hydrochloride], the “Number of embryos developed to 2-cell” value (L-NAME 1 nM with Hb 1 μg/ml) is reported as 78, the “Number of embryos developed to 8-cell” value (L-NAME 1 nM with Hb 1 μg/ml) is reported as 60 and the “Number of embryos developed to 16-cell” value (L-NAME 1 nM with Hb 1 μg/ml) is reported as 46. For the same compound, the “Number of embryos developed to Morula” value (L-NAME 1 nM with Hb 1 μg/ml) was 38, the “Number of embryos developed to Blastocyst” value (L-NAME 1 nM with Hb 1 μg/ml) was 26 and the “Least square mean of embryos developed to 2-cell” value (L-NAME 1 nM with Hb 1 μg/ml) was 0.813. For the same compound, the “Least square mean of embryos developed to 8-cell” value (L-NAME 1 nM with Hb 1 μg/ml) was 0.625, the “Least square mean of embryos developed to 16-cell” value (L-NAME 1 nM with Hb 1 μg/ml) was 0.479 and the “Least square mean of embryos developed to Morula” value (L-NAME 1 nM with Hb 1 μg/ml) was 0.396. For the same compound, the “Least square mean of embryos developed to Blastocyst” value (L-NAME 1 nM with Hb 1 μg/ml) was 0.271, the “Number of embryos developed to 2-cell” value (L-NAME 1000 nM with Hb 1 μg/ml) was 70 and the “Number of embryos developed to 8-cell” value (L-NAME 1000 nM with Hb 1 μg/ml) was 50. For the same compound, the “Number of embryos developed to 16-cell” value (L-NAME 1000 nM with Hb 1 μg/ml) was 40, the “Number of embryos developed to Morula” value (L-NAME 1000 nM with Hb 1 μg/ml) was 28 and the “Number of embryos developed to Blastocyst” value (L-NAME 1000 nM with Hb 1 μg/ml) was 19. The “Least square mean of embryos developed to 2-cell” value (L-NAME 1000 nM with Hb 1 μg/ml) was 0.729, the “Least square mean of embryos developed to 8-cell” value (L-NAME 1000 nM with Hb 1 μg/ml) was 0.521 and the “Least square mean of embryos developed to 16-cell” value (L-NAME 1000 nM with Hb 1 μg/ml) was 0.416. For the same compound, the “Least square mean of embryos developed to Morula” value (L-NAME 1000 nM with Hb 1 μg/ml) was 0.292, the “Least square mean of embryos developed to Blastocyst” value (L-NAME 1000 nM with Hb 1 μg/ml) was 0.198 and the “further stimulation of embryonic development to the blastocyst stage” value (L-NAME added to culture medium containing Hb, P>0.07) was “did not further stimulate”.

Reference: patent US6864086B2, “Nitric oxide-scavenging system for culturing oocytes, embryos, or other cells” (Board of Supervisors of Louisiana State University and …, priority 1998, dated 2005)
